Values joined by “and” are separate entries in the source; they are usually repeats but may differ in a detail not shown here. Equal values may be shown once. “Also recorded” adds a separate entry of the source. Read-outs that look alike come from different tables or passages of the source.
Experiments:
PpPII = PpPII (Porphyra purpurea, UniProt P51254); test: ITC binding of small effector molecules to red algal PpPII
Procedure: (§1) To gain additional insights into the ligand binding properties of PpPII in comparison to cyanobacterial and chloroplastid PII proteins, isothermal titration calorimetry (ITC) experiments were performed using highly purified Strep-tagged or His-tagged recombinant PpPII, SyPII, CrPII, and PhyscoPII proteins (Supplementary Fig. S1) with different protein/ligand/ concentrations to determine the best fitting conditions of the binding model. The titration experiments were repeated with different protein preparations to confirm the reproducibility of the results. The raw isothermal data were fitted into one-binding site as well as three-sequential binding sites to define the best fitting model. Fitting using a one binding site model states an average Kd value for all available binding sites and the mean of the stoichiometry of bound ligands.
(§2) The ITC experiments were done using a VP-ITC microcalorimeter (MicroCal, LCC). All details for determination of binding constants for small effector molecules using ITC are fully described in the supplementary information. Heat isotherms of the dilution of the ligand in the cell buffer were collected in a blank run for each experiment in the absence of protein. The binding isotherms were calculated from received data and fitted to one-site and three-sequential binding sites models using the MicroCal ORIGIN software (Northampton) as described. All titrations were performed in duplicates with different purification batches of recombinant PII proteins. The association binding constant (Ka) was generated from the software by de-convolution and curve fitting. For calculation of dissociation constant (Kd), the Ka value was inversed.
(§3) Supplementary Information […]
(§4) Determination of Binding Constants for Small Effector Molecules using Isothermal […]
(§5) The binding of the small effector molecules to the recombinant PII proteins was tested using isothermal titration calarmity (ITC); VP-ITC microcalorimeter (MicroCal). All titrations were performed on 20°C using […] injection syringe with injection 6 µl or 10 µl of the tested ligands for 45 or 29 times, respectively into the cell (1.4 ml) with continuous stirring at 155 rpm. All tested ligands were high grade, prepared freshly in the same buffer of the protein and purchased from Sigma-Aldrich. Heat isotherms for the dilution of the ligand in the cell buffer were collected in a blank run in the absence of protein. The received calorimetric data were analyzed using MicroCal Origin software and fitted into one-site and three-sequential binding sites models, as indicated by the manufacture for calculation of binding isotherms9. For data reproducibility, the titrations were performed in duplicates with different purification batches of recombinant PII proteins. The association binding constant (Ka) was generated from the software by de-convolution and curve fitting. For calculation of dissociation constant (Kd), the Ka value was inversed.
For determination the binding isotherms of red algal PpPII protein, a buffer system composed of […]
used. For determination ATP and ADP binding isotherms upon the binding to PpPII protein, His- […]
against 2 mM ATP or 2 mM ADP. For determination of ATP and ADP binding isotherms in […]
concentration) was titrated against 0.5 mM of ATP or 1 mM ADP, respectively. However, for […]
of 1 mM of ATP or 1 mM ADP. […]

SyPII [1] = target: T1, SyPII (Synechococcus elongatus, UniProt P0A3F4); test: ITC binding of small effector molecules to cyanobacterial SyPII; set-up: species or system Synechococcus elongatus PCC 7942
T1 construct: Strep-tag; made in house
Procedure: as §1, §2, §3, §4
as §5, with “inversed. […]” for “inversed.”
For determination the binding isotherms of cyanobacterial SyPII protein, a strep-tagged recombinant protein (20 µM trimeric concentration) was overexpressed and used as described previously9, 15, in a buffer composed of 10 mM Hepes-NaOH, 50 mM KCl, 50 mM NaCl, and 1

CrPII = test: ITC binding of small effector molecules to green algal CrPII; set-up: species or system Chlamydomonas reinhardtii
Procedure: as §1, §2, §3, §4
as §5, with “inversed. […]” for “inversed.”

PhyscoPII = test: ITC binding of small effector molecules to plant-moss PhyscoPII; set-up: species or system Physcomitrella patens
Procedure: as §1, §2, §3, §4, §5
5 mM MgCl2, 0.5 mM EDTA, and 10% glycerol (pH 7.6). […]
For determination the binding isotherms of plant-moss PhyscoPII protein, a strep-tagged recombinant protein (5 or 6 µM trimeric concentration) was used in system composed of 20 mM

SyPII [2] = target: T1, SyPII; settings: in presence ADP, given in parentheses for comparison; cited from earlier work
PipX = test: Pull-down analysis of PipX binding to PII proteins; set-up: species or system Synechocystis sp. PCC 6803; settings: 10 µM proteins, 1 mM ADP, Strep-Tactin column, Tricine-SDS-PAGE
Text: In cyanobacteria, PipX is the second known receptor of PII signaling. We questioned whether red algal PII proteins have lost or retained the ability to bind to PipX. To test this possibility, we first analyzed complex formation using pull-down experiments (Supplementary Fig. S3A and B). The PII protein from Synechocystis sp. PCC 6803 (ScPII) was mixed with PipX in the presence of ADP and then the Strep-tagged PII was immobilized on the Strep-Tactin II column (Supplementary Fig. S3A). After extensive washes, the proteins were eluted with desthiobiotin and analyzed by Tricine-SDS-PAGE. Both proteins were detected in the elution. Thus, confirming previous studies[16]–[18], cyanobacterial PII was bound to PipX. When PpPII in the presence of PipX was immobilized on the column, no PipX signal was detected in the elution (Supplementary Fig. S3B).
For complex formation, the binding reactions were done in 300 μl of buffer (100 mM Tris HCl, pH 8.0, 150 mM NaCl, 1 mM EDTA) by adding 10 µM of purified proteins: His6-ScPipX and Strep-tag ScPII or Strep-tag PpPII. […] The eluted fractions were analyzed by Tricine-SDS PAGE[51] and stained with SimplyBlue™ SafeStain (Invitrogen).
Figure S3. […] Complex formation between PipX and ScPII (A) or PpPII (B) was assessed by pull-down. […] (C) Complex formation between PipX and PII proteins was assessed by SPR. […]

ScNAGK = target: T2, ScNAGK (Synechocystis sp., UniProt P73326); test: Coupled NAGK activity assay, ScNAGK; format: biochemical, Synechocystis sp. PCC 6803
T2 sequence (P73326 1-297): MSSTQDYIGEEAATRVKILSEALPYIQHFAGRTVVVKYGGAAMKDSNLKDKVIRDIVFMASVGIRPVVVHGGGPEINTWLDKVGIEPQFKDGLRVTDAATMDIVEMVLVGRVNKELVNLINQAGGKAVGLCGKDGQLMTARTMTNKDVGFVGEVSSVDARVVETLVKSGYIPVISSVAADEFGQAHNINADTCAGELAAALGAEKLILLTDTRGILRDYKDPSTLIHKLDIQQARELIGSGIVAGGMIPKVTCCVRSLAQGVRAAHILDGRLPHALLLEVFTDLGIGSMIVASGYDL
Procedure: (§6) The assess the activity of ScNAGK was measured with an enzyme assay, in which the ADP production was coupled to the NADH oxidation by the auxiliary enzymes pyruvate kinase and lactate dehydrogenase according to previously described procedure[32],[50]. […] The oxidation reaction of NADH was recorded for 10 min using spectrophotometer (SPECORD 210 PLUS, Analytik Jena AG) at 340 nm. […] The NADH molar absorption coefficient is 6178 L mol^−1 cm^−1 for at 340 nm, which was used for calculation. […] From the velocity slopes, the enzymatic constants Km, Kcat and IC50 were calculated using the Graph-Pad Prism software (GraphPad Software, USA).

PpPII-ScNAGK complex = PpPII-ScNAGK complex (Porphyra purpurea, UniProt P51254); test: Coupled NAGK activity assay, ScNAGK with PpPII; format: biochemical, Synechocystis sp. PCC 6803; Porphyra purpurea; settings: ScNAGK in the presence of PpPII, fixed 10 mM ATP
Procedure: as §6

[3] = titrant alone, read-out: Average Kd (one-site binding model)
[4] = titrant alone, read-out: Kd1 (three-sites binding model)
[5] = titrant alone, read-out: Kd2 (three-sites binding model)
[6] = titrant alone, read-out: Kd3 (three-sites binding model)

PpPII, sequence (P51254 whole entry): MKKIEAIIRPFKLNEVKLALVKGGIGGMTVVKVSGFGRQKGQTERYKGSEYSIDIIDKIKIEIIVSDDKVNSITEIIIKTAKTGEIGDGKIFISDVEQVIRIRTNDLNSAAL
T1 sequence (P0A3F4 whole entry): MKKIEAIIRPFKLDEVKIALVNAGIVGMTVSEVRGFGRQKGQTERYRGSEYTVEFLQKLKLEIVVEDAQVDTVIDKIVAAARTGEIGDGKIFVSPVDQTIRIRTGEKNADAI
PpPII-ScNAGK complex, sequence (P51254 whole entry, one chain of several): as the sequence (P51254 whole entry) above

O=C(O)CCC(=O)C(=O)O [2-OG, 2-oxoglutarate]
N, number of calculated binding sites (one-site binding model) (PpPII; in presence ADP (1 mM)): No binding | N, number of calculated binding sites (one-site binding model) (PpPII; in presence ATP (1 mM)): 1.0 | N, number of calculated binding sites (one-site binding model) (SyPII [1]; in presence ATP (2 mM)): 1.4 | Average Kd (one-site binding model) (CrPII; in presence ADP (2 mM)): never observed binding; also recorded: No binding | Kd1 (three-sites binding model) (CrPII; in presence ADP (2 mM)): No binding | Kd2 (three-sites binding model) (CrPII; in presence ADP (2 mM)): No binding | Kd3 (three-sites binding model) (CrPII; in presence ADP (2 mM)): No binding | Kd (CrPII; in presence ATP (2 mM), read-out: Average Kd (one-site binding model)): 15 ± 5.4 µM | Kd (CrPII; in presence ATP (2 mM), read-out: Kd1 (three-sites binding model)): 4.2 ± 0.7 µM | Kd (CrPII; in presence ATP (2 mM), read-out: Kd2 (three-sites binding model)): 21.3 ± 11 µM | Kd (CrPII; in presence ATP (2 mM), read-out: Kd3 (three-sites binding model)): 45.5 ± 19.8 µM | Average Kd (one-site binding model) (PhyscoPII; in presence ATP (1 mM)): unable to detect any binding; also recorded: No binding | Kd1 (three-sites binding model) (PhyscoPII; in presence ATP (1 mM)): No binding | Kd2 (three-sites binding model) (PhyscoPII; in presence ATP (1 mM)): No binding | Kd3 (three-sites binding model) (PhyscoPII; in presence ATP (1 mM)): No binding | N, number of calculated binding sites (one-site binding model) (SyPII [2]): (No binding)

ScPII: PII protein from Synechocystis sp. PCC 6803, recombinant with C-terminal Strep-tag II
complex formation with PipX (pull-down) (PipX): bound to PipX

CC(=O)N[C@@H](CCC(=O)O)C(=O)O [NAG, N-acetyl glutamate]
Kcat (ScNAGK; free ScNAGK, NAG variable substrate, fixed 10 mM ATP): 8.93 ± 1.40 s⁻¹ | Km (ScNAGK; read-out: Km value for N-acetyl glutamate (NAG), free ScNAGK, fixed 10 mM ATP): 16.2 ± 2.14 mM | Kcat (PpPII-ScNAGK complex; NAG variable substrate): 10.02 ± 1.11 s⁻¹ | Km (PpPII-ScNAGK complex; read-out: apparent Km for NAG): 4.25 ± 0.36 mM

Nc1ncnc2c1ncn2[C@@H]1O[C@H](COP(=O)(O)OP(=O)(O)OP(=O)(O)O)[C@@H](O)[C@H]1O [ATP]
Kd (PpPII; Average Kd (one-site binding model), in presence 2-OG (1 mM)): 0.2 ± 0.3 µM | Kd (PpPII; Average Kd (one-site binding model), titrant alone): ~22 µM and 22 µM | Kd (PpPII; Kd1 (three-sites binding model), in presence 2-OG (1 mM)): 1.4 ± 1.8 µM | Kd (PpPII; Kd1 (three-sites binding model), titrant alone): 0.5 ± 0.2 µM | Kd (PpPII; Kd2 (three-sites binding model), in presence 2-OG (1 mM)): 1 ± 0.9 µM | Kd (PpPII; Kd3 (three-sites binding model), in presence 2-OG (1 mM)): 83.9 ± 62.4 µM | Kd (PpPII; Kd3 (three-sites binding model), titrant alone): 142 ± 80.8 µM | N, number of calculated binding sites (one-site binding model) (PpPII; in presence 2-OG (1 mM)): 1.0 | Kd (PpPII; read-out: Kd2 (three-sites binding model), titrant alone): 18.7 ± 9.2 µM | N, number of calculated binding sites (one-site binding model) (PpPII; titrant alone, per PII trimer): 2.5 | N, number of calculated binding sites (one-site binding model) (SyPII [1]; in presence 2-OG (1 mM)): 1.8 | Kd (SyPII [1]; in presence 2-OG (1 mM), read-out: Average Kd (one-site binding model)): 2.7 ± 0.1 µM | Kd (SyPII [1]; in presence 2-OG (1 mM), read-out: Kd1 (three-sites binding model)): 0.5 ± 0.5 µM | Kd (SyPII [1]; in presence 2-OG (1 mM), read-out: Kd2 (three-sites binding model)): 3 ± 1.7 µM | Kd (SyPII [1]; in presence 2-OG (1 mM), read-out: Kd3 (three-sites binding model)): 325 ± 171 µM | N, number of calculated binding sites (one-site binding model) (SyPII [1]; titrant alone): 3.2 | Kd (SyPII [1]; [3]): 43.3 ± 37.7 µM | Kd (SyPII [1]; [4]): 7.5 ± 7.3 µM | Kd (SyPII [1]; [5]): 15.9 ± 12.2 µM | Kd (SyPII [1]; [6]): 85.4 ± 74.6 µM | Kd (CrPII; in presence 2-OG (2 mM), read-out: Average Kd (one-site binding model)): 35.8 ± 1.6 µM | Kd (CrPII; in presence 2-OG (2 mM), read-out: Kd1 (three-sites binding model)): 5.8 ± 5.8 µM | Kd (CrPII; in presence 2-OG (2 mM), read-out: Kd2 (three-sites binding model)): 53.1 ± 58.3 µM | Kd (CrPII; in presence 2-OG (2 mM), read-out: Kd3 (three-sites binding model)): 61.6 ± 9.7 µM | Average Kd (one-site binding model) (CrPII; titrant alone): unable to notice any binding; also recorded: No binding | Kd1 (three-sites binding model) (CrPII; titrant alone): No binding | Kd2 (three-sites binding model) (CrPII; titrant alone): No binding | Kd3 (three-sites binding model) (CrPII; titrant alone): No binding | Kd (PhyscoPII; in presence 2-OG, read-out: Average Kd (one-site binding model)): 17.6 ± 7.5 µM | Kd (PhyscoPII; in presence 2-OG, read-out: Kd1 (three-sites binding model)): 8 ± 6 µM | Kd (PhyscoPII; in presence 2-OG, read-out: Kd2 (three-sites binding model)): 16.3 ± 11.4 µM | Kd (PhyscoPII; in presence 2-OG, read-out: Kd3 (three-sites binding model)): 129 ± 128 µM | Kd (PhyscoPII; [3]): 26.8 ± 10.5 µM | Kd (PhyscoPII; [4]): 5.7 ± 1.4 µM | Kd (PhyscoPII; [5]): 13.6 ± 7.2 µM | Kd (PhyscoPII; [6]): 48.2 ± 29.3 µM

N=C(N)NCCC[C@H](N)C(=O)O [arginine]
IC50 (ScNAGK; read-out: Feedback inhibition of ScNAGK, half maximal inhibitory concentration (IC50)): 6.2 µM

From paper PMC5768801, “The PII signaling protein from red algae represents an evolutionary link between cyanobacterial and Chloroplastida PII proteins” (Scientific Reports, 2018)
